For 90 compounds, melting point results are on record in a melting point compilation (Tetko et al.; mined from patent text by program, amines drawn as free bases though some values may be those of a salt).

A value given as a limit tells only on which side of the number the result lay.

As to `COc1cc(C2CCN(C[C@H](O)CO)CC2)ccc1Nc1ncc2ccc(-c3cccc(S(=O)(=O)NC(C)(C)C)c3)n2n1`, the melting point was 192 to 220 °C.

In turn, `COc1ccc(-c2[nH]cnc2-c2cc(OC)c(Br)c(OC)c2)cc1O` registered a melting point of 185 to 187 °C.

Compound `CS(=O)(=O)c1cccc(NC(=O)c2cnn3c(C(F)F)cc(-c4ccc(C(F)(F)F)c(OCC(F)(F)F)c4)nc23)c1` registered a melting point of 207 °C.

As for `COc1ccc(-c2c(CO)cc(OC)c(OC)c2OC)c(CO)c1OS(C)(=O)=O`, the melting point fell in the range of 124 to 126 °C.

Turning to `Cc1ccc(Cc2cnc(NCCCNc3ccc(C#N)cn3)[nH]c2=O)cn1`, the melting point fell in the range of 175 to 177 °C.

As for `O=C(Nc1ccccc1)C1CCNCC1`, the melting point lay in the range of 121 to 127 °C.

As for `CCOCCOC(=O)C(=O)Nc1nc(-c2ccc(C(C)(C)C)cc2)cs1`, the melting point was in the range of 158 to 160 °C.

On to `CCC(C(CC(=O)OC)c1ccc(Cl)cc1Cl)[N+](=O)[O-]` (stereo not given), for which the melting point fell in the range of 234 to 237 °C.

Compound `Cc1ccc(OCc2ccccc2[N+](=O)[O-])c(C=O)c1` yielded a melting point of 124 °C.

Compound `CCOC(=O)CNC(=O)N1CS(=O)c2c1cc(C(F)(F)F)cc2[N+](=O)[O-]` (stereo not given) returned a melting point of 150 °C.

`Cc1nc(N)nc(N)c1N=Nc1ccc(I)cc1`: the melting point was in the range of 243 to 244 °C.

For the compound `CC(C#N)Oc1cccc(C=Cc2ccc3ccc(Cl)cc3n2)c1` (stereo not given), the melting point was in the range of 118 to 120 °C.

Turning to `CC(=O)Oc1ccc(/C=C/c2cc(C)cc(C)c2)cc1`, the melting point is 84.9 to 85 °C.

For the compound `NC(=O)c1c(F)ccc(OCc2nc3ncccc3o2)c1F`, the melting point fell in the range of 180 to 181 °C.

In turn, `COc1ccccc(NC(=O)C2=C(O)c3ccccc3S(=O)(=O)N2C)c1=O` had a melting point of 243 to 247 °C.

For `O=C1c2ccccc2C(=O)N1CCCCN1CCN(c2csc3cc(F)ccc23)CC1`, the melting point lay within 94 to 95 °C.

Regarding `CN(C)Cc1nnc(CO)n1-c1ccc(Cl)cc1C(=O)c1ccccc1Cl`, the melting point lay in the range of 138 to 141 °C.

For the compound `COCc1cc([N+](=O)[O-])ccc1N1C(=O)c2ccc(Cl)cc2C1=O`, the melting point lay in the range of 125 to 128 °C.

In turn, `O=C(O)Cc1cccc(NC(=O)NCC(=O)N2[C@@H](c3ccccc3)CC[C@H]2c2ccccc2)c1` gave a melting point of 152 °C.

In turn, `CCCCOCCOc1ccc(-c2ccc3c(c2)C=C(C(=O)O)CCN3CC2CC2)cc1` returned a melting point of 152 to 155 °C.

Turning to `O=C1CCCC2=C1C(c1ccc(F)c(C(F)(F)F)c1)C1=C(CCS1)N2` (single isomer, unassigned; (+)), the melting point is greater than 250 °C.

On to `Cc1cc(NC(=O)C2=C(O)c3ccsc3S(=O)(=O)C2)no1`, for which the melting point was in the range of 209 to 210 °C.

Turning to `Clc1ncnc(Cl)c1-c1ccc(-c2ccccc2)cc1`, the melting point turned out to be 144 °C.

Take `Cc1nc2ccc(NCCCN3CCC(OC(c4ccccc4)c4ccccc4)CC3)nn2n1`: the melting point was 119 to 120 °C.

`CS(=O)c1ccc(OCc2ccccc2)c(CCCc2ccc(C(=O)NCCO)cc2)c1` (stereo not given) displayed a melting point of 105 to 108 °C.

As to `Cc1ccc2c(c1)oc1c(C(=O)O)nn(-c3ccc(Cl)cc3Cl)c12`, the melting point was 228 to 230 °C.

On to `CNC(=O)[C@H](Cc1ccc(OCc2ccccc2)cc1)NC(=O)[C@H](CC(C)C)N[C@H](C)C(=O)OC`, for which the melting point was in the range of 65 to 68 °C.

For `Cc1c(C(=O)O)cc(O)c2cc(-c3ccc4c(c3)C(C)(C)CCC4(C)C)ccc12`, the melting point was 266 °C.

Take `Cc1cc(C)c(C(=O)ON2C(C)(C)c3ccccc3C2(C)C)c(C)c1`: the melting point lay in the range of 181 to 183 °C.

As for `CC(C)(C=NO)C(O)(CCc1ccc(F)cc1)Cn1cncn1` (stereo not given), the melting point was 101 to 103 °C.

The compound `O=c1cc(C(F)(F)F)[nH]n1-c1ccccc1` returned a melting point of 193 °C.

On to `O=C(c1ccccc1CBr)c1cc(F)ccc1CBr`, for which the melting point fell in the range of 118 to 119 °C.

`c1ccc2c(c1)CC(Nc1ncnc3nc[nH]c13)C2` yielded a melting point of 300 °C.

Take `COc1cc2c(c(Cl)c1Cl)C(=O)C(C)(C)C2(C)c1ccccc1` (stereo not given): the melting point lay in the range of 189 to 190 °C.

`CSc1ccc(C=O)cc1OC(C)C` had a melting point of 50 to 54 °C.

`Oc1cc(Cl)cc(Br)c1O` displayed a melting point of 71 to 73 °C.

As to `COc1ccccc1N1CCN(C2CCN(c3csc4ccccc34)CC2)CC1`, the melting point lay in the range of 156 to 158 °C.

With `CC1(C)CC(=O)c2c(NCc3ccco3)sc(-c3cc[nH]n3)c2C1`, the melting point fell in the range of 204 to 206 °C.

As to `CCOC(=O)C(=O)Nc1c([N+](=O)[O-])sc2ccc(Br)cc12`, the melting point lay in the range of 157 to 160 °C.

For `Oc1ccc(Nc2ccncc2)cc1`, the melting point lay within 246 to 248 °C.

The compound `CC[C@@H](c1ccccc1)N(Cc1ccc(C(=O)OC)c(F)c1)S(=O)(=O)c1ccc(Cl)cc1` came in with a melting point of 96 to 98 °C.

Compound `COc1ccc2c(c1)CC(CNC(=O)Nc1c(C(C)C)cccc1C(C)C)CC2` (stereo not given) gave a melting point of 171 to 172 °C.

Compound `Cc1ccc(S(=O)(=O)CCC2OCCO2)cc1` displayed a melting point of 78 to 80 °C.

For the compound `CCN(CC)Cc1nn2cc(-c3ccccc3)nc2s1`, the melting point was 138 °C.

For the compound `CCCn1c(=O)oc2cc(F)c([N+](=O)[O-])cc21`, the melting point was 148 to 152 °C.

Compound `CS(=O)(=O)c1ncc(F)c(N)n1` yielded a melting point of 157 to 159 °C.

As for `CCCCCC(O)C=Cc1scnc1CCCCCCC(=O)O` (stereo not given), the melting point is 73 to 74 °C.

Compound `Cn1c(C#N)cc(Br)c1Br` showed a melting point of 104 to 105 °C.

`CCOC(=O)c1ncn(Cc2ccccc2)c1OC` yielded a melting point of 127 to 128 °C.

Regarding `Cc1nc2ccc(NS(=O)(=O)c3cccc(Cl)c3C)cc2o1`, the melting point is 127 to 128 °C.

`O=C(NCC(=O)c1c(O)cc(O)cc1OCc1ccccc1)OCc1ccccc1` gave a melting point of 129 to 131 °C.

`Cn1nnnc1SCc1c(S(C)(=O)=O)ccc(C(=O)C2=C(Sc3ccccc3)CCCC2=O)c1Cl`: the melting point fell in the range of 76 to 87 °C.

`NS(=O)(=O)c1ccc(C2=NC3(O)c4ccc(Cl)cc4CC3S2)cc1` (stereo not given) returned a melting point of 160 °C.

Turning to `CCOC(=O)c1cn(Cc2ccc(-c3ccccc3-c3nnnn3C(c3ccccc3)(c3ccccc3)c3ccccc3)cc2)c2sc(CC)cc2c1=O`, the melting point lay in the range of 195 to 198 °C.

For the compound `O=[N+]([O-])c1ccc(C=[N+]([O-])c2cccc(CO)c2)cc1`, the melting point fell in the range of 207 to 209 °C.

`CC(C)(C)OC(=O)N1CC2CCCCC(C1)C2C(=O)O` (stereo not given) registered a melting point of 218 to 222 °C.

For `O=C(O)c1c(-c2ccccc2)c(=O)[nH]c2cc(Cl)ccc12`, the melting point stood at 258 °C.

Consider `C=C(C)C(=O)NCCNC(=O)c1ccc2ccccc2c1O`, for which the melting point lay in the range of 167 to 169 °C.

`Cc1cc(Cl)ncc1C(=O)O` displayed a melting point of 170 to 172 °C.

Regarding `C#CCCCn1ncc2c(OCC)c(C(=O)OCC)cnc21`, the melting point was 84 to 85.5 °C.

The compound `O=[N+]([O-])c1ccc(S(=O)(=O)Nc2cccc3c(Cl)c[nH]c23)cc1` yielded a melting point of 200 °C.

As to `Fc1ccc2scc(Br)c2c1`, the melting point lay in the range of 79 to 80 °C.

Compound `Cc1nn2ccc3c(c2c1CO)CCO3` returned a melting point of 173 to 174 °C.

Compound `COc1ccc2c(c1)C(=O)C(=Cc1cccnc1)CO2` returned a melting point of 127 to 131 °C.

In turn, `CCc1ccc(Nc2c(F)c(F)cc(F)c2F)c(CC(=O)O)c1` had a melting point of 165 to 169 °C.

The compound `CC(=O)N1CCCC(C(=O)c2ccc(N3CCCCC3)cc2)C1` (stereo not given) displayed a melting point of 116 to 120 °C.

Regarding `CC(C)CCS(=O)(=O)NC(=O)OCc1cc(OC(C)C)nn1Cc1ccc(Cl)cc1Cl`, the melting point was 104 to 107 °C.

The compound `OCCOCn1c(Cl)nc2c(Cl)c(Cl)c(Cl)c(Cl)c21` had a melting point of 168 to 170 °C.

The compound `CN1CCN(C)C(c2ccc([N+](=O)[O-])cc2)C1=O` (stereo not given) came in with a melting point of 99 to 102 °C.

With `CC1(CCC(=O)O)CC(=O)c2ccc(OCc3cccc(OCc4ccc5ccccc5n4)c3)cc2O1` (stereo not given), the melting point is 152 to 154 °C.

For the compound `O=C(O)COc1cccc2c1CCC(Cc1coc(C(c3ccccc3)c3ccccc3)n1)C2` (stereo not given), the melting point lay in the range of 158 to 160 °C.

On to `C=C(C(=O)c1ccc(OCC(=O)O)c(Cl)c1Cl)C(C)(C)C`, for which the melting point was in the range of 160 to 162 °C.

Compound `CC1(C)Oc2ccc(C#N)cc2C(NC(=O)Nc2ccc3c(c2)CCC3)C1O` (stereo not given) displayed a melting point of 235 to 237 °C.

The compound `NC(=O)c1cccc(NS(=O)(=O)c2ccc([N+](=O)[O-])cc2)c1` yielded a melting point of 240 to 244 °C.

In the case of `CN(C)Cc1nnc2n1-c1ccccc1C(c1ccccc1)=NC2`, the melting point was in the range of 181 to 182 °C.

Consider `CS(=O)(=O)OCC(O)(CC(Cl)(Cl)Cl)c1cc(Cl)cc(Cl)c1` (stereo not given), for which the melting point was 99 to 104 °C.

`Cc1c(CC(=O)O)c2cc(O)ccc2n1C(=O)c1ccc(OC(F)(F)F)cc1` registered a melting point of 193 to 195 °C.

The compound `CCOC(=N)C(O)c1sccc1C` (stereo not given) came in with a melting point of 73 to 76 °C.

`CN(C)Cc1ccc(-c2cc3onc(-c4ccccc4)c3c(=O)n2C)cc1` displayed a melting point of 159 to 161 °C.

Compound `CCN1c2ncc(CCc3cccc(N=[N+]=[N-])c3)cc2C(=O)N(C)c2ccc(Cl)nc21` yielded a melting point of 104 to 105 °C.

As to `N#Cc1cc2cc(Br)ccc2nc1Cl`, the melting point was 228 to 230 °C.

`CCOC(=O)Cc1cc(C)c(C(=O)c2ccc(F)cc2)n1C` returned a melting point of 84 to 86 °C.

`O=C(Nc1nc2c(s1)CC(N1CCN(c3ccccn3)CC1)CC2)c1ccccc1` (stereo not given) displayed a melting point of 230 to 232 °C.

As to `COc1cc(OC)nc(Oc2cccc3c2C(=O)OC3Cl)n1` (stereo not given), the melting point was in the range of 143 to 144 °C.

In turn, `Nc1cccc2c(OCc3ccccc3)ccnc12` had a melting point of 115 °C.

Regarding `CC1OC(=O)C(c2ccccc2)OC1=O` (stereo not given), the melting point lay within 153 to 156 °C.

The compound `O=C(O)c1ccc(-c2nc3ccccc3s2)cc1` registered a melting point of 294 to 296 °C.

With `O=S(=O)(NCCCCOc1ccc(-n2ccnc2)cc1)c1cccc2nonc12`, the melting point is 125 to 126 °C.

For `CC(C)(C)c1ccc(Cn2c3c(c4cc(OCc5ccccc5)ccc42)C(=O)C(=O)OC3)cc1`, the melting point was 233 to 234 °C.

On to `Nc1cccc(C2=NNC(=O)C3CC23)c1` (stereo not given), for which the melting point is 192 to 193 °C.

By melting point is commonly meant the temperature, or range, at which the solid turns liquid.
